Experiments:
Aspergillus flavus [1] = experiment: Antifungal activity against Aspergillus flavus at 50 ug/ml by agar plate method; assay type: functional
Pseudomonas aeruginosa = experiment: Antibacterial activity against Pseudomonas aeruginosa by disk diffusion method; assay type: functional
MCF7 [2] = experiment: Cytotoxicity against human MCF7 cells; assay type: functional, cell-based
Aspergillus niger [3] = experiment: Antifungal activity against Aspergillus niger at 20 ug/ml by agar plate method; assay type: functional
Aspergillus niger [4] = experiment: Antifungal activity against Aspergillus niger at 100 ug/ml by agar plate method; assay type: functional
Aspergillus niger [5] = experiment: Antifungal activity against Aspergillus niger at 10 ug/ml by agar plate method; assay type: functional
Klebsiella pneumoniae = experiment: Antibacterial activity against Klebsiella pneumoniae by disk diffusion method; assay type: functional
Aspergillus flavus [6] = experiment: Antifungal activity against Aspergillus flavus at 100 ug/ml by agar plate method; assay type: functional
Aspergillus flavus [7] = experiment: Antifungal activity against Aspergillus flavus at 10 ug/ml by agar plate method; assay type: functional
Aspergillus niger [8] = experiment: Antifungal activity against Aspergillus niger at 50 ug/ml by agar plate method; assay type: functional
Aspergillus flavus [9] = experiment: Antifungal activity against Aspergillus flavus at 20 ug/ml by agar plate method; assay type: functional
MCF7 [10] = experiment: Cytotoxicity against human MCF7 cells assessed as decrease in number of cells relative to control; assay type: functional, cell-based
Staphylococcus aureus = experiment: Antibacterial activity against Staphylococcus aureus by disk diffusion method; assay type: functional

| Structure (SMILES) | inhibition at 50 µg/mL (Aspergillus flavus [1]) [%] | inhibition zone (IZ) (Pseudomonas aeruginosa) [mm] | IC50 (MCF7 [2]) [µM] | inhibition at 20 µg/mL (Aspergillus niger [3]) [%] | inhibition at 100 µg/mL (Aspergillus niger [4]) [%] | inhibition at 10 µg/mL (Aspergillus niger [5]) [%] | inhibition zone (IZ) (Klebsiella pneumoniae) [mm] | inhibition at 100 µg/mL (Aspergillus flavus [6]) [%] | inhibition at 10 µg/mL (Aspergillus flavus [7]) [%] | inhibition at 50 µg/mL (Aspergillus niger [8]) [%] | inhibition at 20 µg/mL (Aspergillus flavus [9]) [%] | Activity (MCF7 [10]) | inhibition zone (IZ) (Staphylococcus aureus) [mm] |
| --- | --- | --- | --- | --- | --- | --- | --- | --- | --- | --- | --- | --- | --- |
| O=C1Nc2cc3c(-c4ccccc4)c(-c4ccccc4)n(-c4ccccc4)c(=O)c3cc2C(c2ccccc2)N1 (centres undefined) | 73.3 | 10 | 4.4 | 75 | 95 | 60 | 6 | 86.7 | 53.3 | 90 | 60 | Toxic | >14 |
| O=C1Nc2cc3c(-c4ccccc4)c(-c4ccccc4)n(-c4ccc(Cl)cc4)c(=O)c3cc2C(c2ccccc2)N1 (centres undefined) | 83.3 | 10 | 25.6 | 70 | 90 | 50 | 10 | 93.3 | 60 | 80 | 76.7 | Toxic | 10 |
| O=C1NCc2cc3c(=O)n(-c4ccc(Cl)cc4)c(-c4ccccc4)c(-c4ccccc4)c3cc2N1 | ≤ 25 | 6 | 3.7 | ≤ 25 | ≤ 25 | ≤ 25 | 6 | ≤ 25 | ≤ 25 | ≤ 25 | ≤ 25 | Not toxic | 6 |
| COc1ccc(-n2c(-c3ccccc3)c(-c3ccccc3)c3cc4c(cc3c2=O)C(c2ccccc2)NC(=O)N4)cc1 (centres undefined) | ≤ 25 | 6 | 11.4 | ≤ 25 | ≤ 25 | ≤ 25 | 6 | ≤ 25 | ≤ 25 | ≤ 25 | ≤ 25 | Not toxic | 6 |
| O=C1NCc2cc3c(=O)n(-c4ccccc4)c(-c4ccccc4)c(-c4ccccc4)c3cc2N1 | ≤ 25 | 6 | 8.5 | ≤ 25 | ≤ 25 | ≤ 25 | 6 | ≤ 25 | ≤ 25 | ≤ 25 | ≤ 25 |  | 6 |
